Source: US20250162995A1, “PHENTOLAMINE MESYLATE AND THERAPEUTIC USES THEREOF” (Opus Genetics, Inc., priority 2023, published 2025)
Counter-ions that a name gives are not always drawn.

Assay: XRPD analysis of the solid form after further drying (form stability)
Type: physicochemical
Conditions: further dried at 0.24 bar and 25° C. for 16 hours
Description: Unless otherwise noted, XRPD data was collected using a PANanalytical EMPYREAN vs. 8.2 20201404 diffractometer with a Cu-Kα radiation (λ=1.541874 Å) source operating at 45 kV and 40 mA in transmission theta-theta configuration. Samples were scanned from 2° to 40° 2-theta with a step size of 0.013° 2-theta and a time per step of 78.795 sec. Data collection was performed with DATA COLLECTOR vs. 7.1 and processed with Data Viewer vs. 2.1 and Profex 5.2.4 software.
The phentolamine mesylate obtained according to this Example 4 was further dried at 0.24 bar and 25° C. for 16 hours.
The phentolamine mesylate obtained according to this Example 6 was further dried at 25° C. at 0.24 bar for 16 hours.
The phentolamine mesylate obtained according to this Example 7 was further dried at 0.24 bars at 25° C. for 16 hours.
The phentolamine mesylate obtained according to this Example 11 was further dried at 25° C. and 0.24 bar for 16 hours.
The phentolamine mesylate obtained according to this Example 12 was further dried at 25° C. and 0.24 bar for 16 hours.

Row | SMILES | solid form found by XRPD analysis of the further dried material
1 | Cc1ccc(N(CC2=NCCN2)c2cccc(O)c2)cc1 [Example 12, phentolamine mesylate] | converted to the phentolamine mesylate obtained according to Example 1
2 | Cc1ccc(N(CC2=NCCN2)c2cccc(O)c2)cc1 [Example 7, phentolamine mesylate] | converted to the phentolamine mesylate obtained according to Example 1
3 | Cc1ccc(N(CC2=NCCN2)c2cccc(O)c2)cc1 [Example 6, phentolamine mesylate] | converted to the phentolamine mesylate obtained according to Example 1
4 | Cc1ccc(N(CC2=NCCN2)c2cccc(O)c2)cc1 [Example 11, phentolamine mesylate] | converted to the phentolamine mesylate obtained according to Example 1
5 | Cc1ccc(N(CC2=NCCN2)c2cccc(O)c2)cc1 [Example 4, phentolamine mesylate] | converted to a mixture of the phentolamine mesylate having XRPD peaks of Reference A and the phentolamine mesylate obtained according to Example 1
